These results are taken from article PMC9738927, “A Newly Identified Monoterpenoid-Based Small Molecule Able to Support the Survival of Primary Cultured Dopamine Neurons and Alleviate MPTP-Induced Toxicity In Vivo” (Molecules, 2022).

The series is described as follows: Pharmacokinetics in brain tissue after a single oral dose (HPLC-MS/MS). It is filed as in vivo, CD1 IGS mice. The conditions noted are these: single oral 10 mg/kg. Here is the method: CD1 IGS mice received a single oral dose of PA96 in Tween 80 (10 mg/kg). Mice were sacrificed 5, 10, 30, 60, and 120 min after injection, and all brain samples were collected and placed into an Eppendorf microtube (2 mL). Samples were frozen with liquid nitrogen for subsequent preparation and HPLC-MS/MS analysis. A set of calibrators were prepared, followed by their preparation protocol, and analyzed. The calibration curve was built in the interval of 1–100 ng/g and used to calculate the PA96 concentration in the brain tissue samples.
A stock solution was prepared by dissolving approximately 10 mg of PA96 in a required amount of pure methanol to have the solution with a concentration of 1.0 mg/mL. The working solutions of PA96 with concentrations of 5, 7.5, 25, 50, 75, 250, and 300 ng/mL were prepared by diluting the stock solution with methanol. To prepare a calibrator, a free PA96 brain tissue (~50 mg) was weighed and transferred into an Eppendorf microtube (V = 1.5 mL), then the working solution of PA-96 was added. The mixture was homogenized (Minilys, Bertin Technologies, Montigny-leBretonneux, France) for 60 s at low speed. The calibrators were prepared on the day of the experiment. The working solution of IS in acetonitrile with a concentration of 1.0 mg/mL was used. All the solutions were stored at −18 °C. Before sample preparation, the solutions were brought to room temperature.
The exact amount (~50 mg) of the mouse brain tissue sample was transferred into a polypropylene tube (1.5 mL). For each portion, the solution of IS (1 µL per 1 mg of the brain sample) and pure acetonitrile (10 µL per 1 mg of the brain sample) were added, then all samples were homogenized for 4 min at medium speed. After the homogenization procedure, ~100 mg of the salt mixture (magnesium sulfate: sodium chloride: trisodium citrate: disodium citrate as 4:1:1:0.5) for extraction was added, followed by shaking for 30 min at 1400 rpm in an orbital shaker. The supernatant was separated from the homogenate by centrifugation for 10 min at 13,400 rpm. The obtained solution was further shaken with ~80 mg of the SPE mixture (magnesium sulfate:C18EC as 6:1 and acetonitrile) for 10 min at 1400 rpm and centrifuged for 10 min at 13,400 rpm. A total of 300 µL of the organic phase was placed into a fresh tube and evaporated to dryness in a vacuum. The residue containing the analyte and IS was dissolved in 150 μL of methanol, shaken for 10 min, transferred into a chromatographic vial, and analyzed by HPLC-MS/MS.
The LC-MS/MS analysis was performed using an LC-20AD Prominence chromatograph equipped with an autosampler thermostated at +10 °C (Shimadzu, Japan) and a 3200 QTRAP mass spectrometer equipped with an ESI source (AB SCIEX, USA). Separation was achieved on a ProntoSil-120-5-C18 AQ column (2.0 × 75 mm, 5 μm particles, (EcoNova, Novosibirsk, Russia)) thermostated at +35 °C. The mobile phase was composed of water containing 0.1% formic acid (eluent A) and methanol containing 0.1% formic acid (eluent B). The gradient elution program was as follows: 0 min-10% (B); 0.5 min-10% (B); 7 min-98% (B); 9 min-98% (B); the flow rate was 200 μL/min.
The mass spectrometer was operated using multiple reaction monitoring (MRM) in positive ion mode. Ionization was conducted by applying a voltage of 5500 V, and the source temperature was set at +350 °C. For the analyte and IS, the optimized source parameters, viz. CUR (curtain gas), GS1 (Gas 1), and GS2 (Gas 2) were set at 20 psi. The CAD (collisionally activated dissociation) gas was nitrogen, and the parameter was set as high. The parameters of PA96, viz. MRM transitions, declustering potentials (DP), collision energies (CE), and collision cell exit potentials (CXP) are presented in Table 3. The dwell time was 100 msec. Analyst 1.6.2 software (AB SCIEX, USA) was used for instrument control and data acquisition, and MultiQuant 2.1 software (AB SCIEX, USA) was used for quantification. […]

SMILES strings stand for the structures.

Take `C=C(C)[C@@H]1CC=C(C)[C@@H](Sc2nc[nH]n2)[C@@H]1O` [PA96, (1R,2R,6S)-2-(1H-1,2,4-triazol-3-ylthio)-3-methyl-6-(prop-1-en-2-yl)cyclohex-3-enol]: the “time at which the concentration in brain was close to the minimum value” turned out to be 2 h. Further, for the setting “CD1 IGS, mouse, brain and whole blood, read-out: Kb,brain (brain-to-blood coefficient, AUCbrain/AUCblood)”, the Kp came to 0.119 ± 0.01. Moreover, where the note is “CD1 IGS, mouse, brain”, the Cmax (in general, the peak of the concentration-time curve) worked out at 125 ng/g; the Tmax – broadly, the time from dosing to the highest level – was 5 min; the half-life (as a rule, the time needed for the level to fall by half in the phase considered) is 18.8 ± 0.3 min. Moreover, the MRT inf (CD1 IGS, mouse, brain, read-out: MRT0-inf_obs (converted)) was 21.5 min. For the same molecule, the “concentration in blood higher than in brain tissue” value (at 5 min) is “approximately 4.5 times”. Also, for the setting “brain”, the AUC0-inf_obs result is “(2.03 ± 0.09) × 10^3 ng/g∗min” and the AUC0-t entry is recorded as “(1.99 ± 0.09) × 10^3 ng/g∗min”.
